From US20250382268A1, “METHODS AND COMPOSITIONS FOR SELECTIVELY INHIBITING PATHOGENIC MICROBES” (priority 2019, published 2025)
In brackets after ≈: the same amount, converted by molar mass. Where two headings read alike, the source gives them in different places.

Columns and labels:
HepG2 cells = assay: Cytotoxicity MTT assay in HepG2 cells; assay type: cell-based; conditions: Homo sapiens
Description: Additionally, the antimicrobial compounds were analyzed for cytotoxicity. […] We utilized the standard MTT assay (Promega CellTiter 96) and GraphPad Prism 7 software to determine EC50 values for each analogue. Briefly, 20,000 HepG2 cells in 200 μl of the ATCC recommended media were seeded in each well of a 96-well plate with a moisture barrier created in the outermost wells. The cells were allowed to attach overnight at 37° C., and then observed under phase contrast microscopy for proper morphological characteristics. […] Once incubations were complete, the spectrophotometric absorbance of the samples was measured at a wavelength of 595 nm. […] For the HepaRG assay, NoSpin HepaRG™ cells (Lonza, cat #NSHPRG) were thawed and plated with 20,000 cells per well. They were allowed to attach for 4 h (optimal DME profile per Lonza's testing) before dosing following the identical protocol as above.

Burkholderia cenocepacia = assay: microbe, parasite or virus in culture; assay type: cell-based
[1] = tested on: Burkholderia thailandensis; assay: microbe, parasite or virus in culture; assay type: cell-based
Francisella tularensis = assay: microbe, parasite or virus in culture; assay type: cell-based; conditions: read-out: Francisella tularensis NR-577 MIC, strain NR-577
N. gonorrhoeae = assay: microbe, parasite or virus in culture; assay type: cell-based; conditions: Neisseria gonorrhoeae
Staphylococcus aureus = assay: microbe, parasite or virus in culture
[2] = Toxicity study in mice, body weight over 7 days; assay type: in vivo; conditions: 6-week-old Balb/c mice
Text: The vehicle is 40% PEG300 solution in 0.9% NaCl. […] Thus, the compounds are useful for in vivo antimicrobial administration.

[3] = MRSA, read-out: Staphylococcus aureus MIC, MRSA strain HM-467
[4] = MRSA, read-out: Staphylococcus aureus MIC, MRSA strain NK-41886
[5] = MRSA, read-out: Staphylococcus aureus MIC, MRSA strain NR-13533
[6] = MRSA, read-out: Staphylococcus aureus MIC, MRSA strain NR-28983
[7] = MRSA, read-out: Staphylococcus aureus MIC, MRSA strain NR-41875
[8] = MRSA, read-out: Staphylococcus aureus MIC, MRSA strain NR-41876
[9] = MRSA, read-out: Staphylococcus aureus MIC, MRSA strain NR-41877
[10] = MRSA, read-out: Staphylococcus aureus MIC, MRSA strain NR-41878
[11] = read-out: Staphylococcus aureus MIC, VSSA NR-49121

Compound | EC50 (HepG2 cells) [mg/L] | MIC (Staphylococcus aureus; [3]) [mg/L] | MIC (Staphylococcus aureus; [4]) [mg/L] | MIC (Staphylococcus aureus; [5]) [mg/L] | MIC (Staphylococcus aureus; [6]) [mg/L] | MIC (Staphylococcus aureus; [7]) [mg/L] | MIC (Staphylococcus aureus; [8]) [mg/L] | MIC (Staphylococcus aureus; [9]) [mg/L] | MIC (Staphylococcus aureus; [10]) [mg/L] | MIC (Staphylococcus aureus; [11]) [mg/L] | also measured
Oc1ccc(Sc2c[nH]c3ccccc23)cc1 [Compound 156I, 4-((1H-indol-3-yl)thio)phenol] | 12.1 (≈ 50.1 µM) | – | – | – | – | – | – | – | – | – | MBC (Burkholderia cenocepacia): 150 mg/L (≈ 622 µM); MIC (Burkholderia cenocepacia): 50 mg/L (≈ 207 µM); MBC [1]: 100 mg/L (≈ 414 µM); MIC [1]: 50 mg/L (≈ 207 µM)
Brc1ccc(Sc2c[nH]c3ccccc23)cc1 [Compound 156K, 3-((4-bromophenyl)thio)-1H-indole] | 27.6 (≈ 90.7 µM) | – | – | – | – | – | – | – | – | – | –
Brc1ccc(Oc2c[nH]c3ccccc23)cc1 [Compound 156KC, 3-(4-bromophenoxy)-1H-indole] | – | – | – | – | – | – | – | – | – | – | MIC (Francisella tularensis): 2 mg/L (≈ 6.94 µM); MIC (N. gonorrhoeae; read-out: Neisseria gonorrhoeae WHO 901 MIC, strain WHO 901): 8 mg/L (≈ 27.8 µM); MIC (N. gonorrhoeae; read-out: Neisseria gonorrhoeae WHO 914 MIC, strain WHO 914): 8 mg/L (≈ 27.8 µM)
Brc1ccc(Sc2c[nH]c3ccc(Br)cc23)cc1 [Compound 172D, 5-bromo-3-((4-bromophenyl)thio)-1H-indole] | – | 12.5 (≈ 32.6 µM) | 1.56 (≈ 4.07 µM) | 1.56 (≈ 4.07 µM) | 1.56 (≈ 4.07 µM) | 3.13 (≈ 8.17 µM) | 1.56 (≈ 4.07 µM) | 3.13 (≈ 8.17 µM) | 1.56 (≈ 4.07 µM) | 1.56 (≈ 4.07 µM) | –
COc1ccc2[nH]cc(Sc3ccc(Br)cc3)c2c1 [Compound 172E, 3-((4-bromophenyl)thio)-5-methoxy-1H-indole] | 23.3 (≈ 69.7 µM) | – | – | – | – | – | – | – | – | – | –
Oc1ccccc1Sc1c[nH]c2ccc(Br)cc12 [Compound 174AI, 2-((5-bromo-1H-indol-3-yl)thio)phenol] | 27.4 (≈ 85.6 µM) | 16 (≈ 50 µM) | 8 (≈ 25 µM) | 8 (≈ 25 µM) | 8 (≈ 25 µM) | 8 (≈ 25 µM) | 8 (≈ 25 µM) | 8 (≈ 25 µM) | 8 (≈ 25 µM) | 8 (≈ 25 µM) | toxicity by body weight [2]: did not have significant toxicity
Brc1ccc2[nH]cc(Sc3c[nH]c4ccccc34)c2c1 [Compound 174AL, 3-((1H-indol-3-yl)thio)-5-bromo-1H-indole] | 26.1 (≈ 76 µM) | – | – | – | – | – | – | – | – | – | –
OCc1ccccc1Sc1c[nH]c2ccc(Br)cc12 [Compound 174AT, (2-((5-bromo-1H-indol-3-yl)thio)phenyl)methanol] | – | 32 (≈ 95.7 µM) | 16 (≈ 47.9 µM) | 16 (≈ 47.9 µM) | 16 (≈ 47.9 µM) | 16 (≈ 47.9 µM) | 16 (≈ 47.9 µM) | 16 (≈ 47.9 µM) | 16 (≈ 47.9 µM) | 16 (≈ 47.9 µM) | –
Fc1ccccc1Sc1c[nH]c2ccc(Br)cc12 [Compound 174AU, 5-bromo-3-((2-fluorophenyl)thio)-1H-indole] | – | 2 (≈ 6.21 µM) | 2 (≈ 6.21 µM) | 2 (≈ 6.21 µM) | 2 (≈ 6.21 µM) | 2 (≈ 6.21 µM) | 2 (≈ 6.21 µM) | 4 (≈ 12.4 µM) | 2 (≈ 6.21 µM) | 4 (≈ 12.4 µM) | toxicity by body weight [2]: did not have significant toxicity
FC(F)(F)c1ccccc1Sc1c[nH]c2ccc(Br)cc12 [Compound 174AV, 5-bromo-3-((2-(trifluoromethyl)phenyl)thio)-1H-indole] | – | 2 (≈ 5.37 µM) | 2 (≈ 5.37 µM) | 1 (≈ 2.69 µM) | 1 (≈ 2.69 µM) | 1 (≈ 2.69 µM) | 2 (≈ 5.37 µM) | 2 (≈ 5.37 µM) | 2 (≈ 5.37 µM) | 2 (≈ 5.37 µM) | –
FC(F)(F)c1ccc2[nH]cc(Sc3ccccc3Br)c2c1 [Compound 174AX, 3-((2-bromophenyl)thio)-5-(trifluoromethyl)-1H-indole] | – | 2 (≈ 5.37 µM) | 2 (≈ 5.37 µM) | 1 (≈ 2.69 µM) | 2 (≈ 5.37 µM) | 1 (≈ 2.69 µM) | 2 (≈ 5.37 µM) | 2 (≈ 5.37 µM) | 1 (≈ 2.69 µM) | 1 (≈ 2.69 µM) | –
Cc1ccccc1Sc1c[nH]c2ccc(Br)cc12 [Compound 174AY, 5-bromo-3-(o-tolylthio)-1H-indole] | – | 4 (≈ 12.6 µM) | 4 (≈ 12.6 µM) | 4 (≈ 12.6 µM) | 4 (≈ 12.6 µM) | 4 (≈ 12.6 µM) | 2 (≈ 6.28 µM) | 2 (≈ 6.28 µM) | 2 (≈ 6.28 µM) | 2 (≈ 6.28 µM) | –
Cc1[nH]c2ccc(Br)cc2c1Sc1ccccc1Br [Compound 174AZ, 5-bromo-3-((2-bromophenyl)thio)-2-methyl-1H-indole] | 25.8 (≈ 65 µM) | – | – | – | – | 4 (≈ 10.1 µM) | 2 (≈ 5.04 µM) | – | – | 2 (≈ 5.04 µM) | toxicity by body weight [2]: did not have significant toxicity
Clc1ccc2[nH]cc(Sc3ccc(Br)cc3)c2c1 [Compound 174C, 3-((4-bromophenyl)thio)-5-chloro-1H-indole] | 25.4 (≈ 75 µM) | – | – | – | – | – | – | – | – | – | –
Brc1ccc(Sc2c[nH]c3cccc(Br)c23)cc1 [Compound 174D, 4-bromo-3-((4-bromophenyl)thio)-1H-indole] | 23.2 (≈ 60.6 µM) | – | – | – | – | – | – | – | – | – | –
Fc1ccc2[nH]cc(Sc3ccc(Br)cc3)c2c1 [Compound 174E, 3-((4-bromophenyl)thio)-5-fluoro-1H-indole] | 23.6 (≈ 73.2 µM) | – | – | – | – | – | – | – | – | – | –
